Reference: the supplement of paper PMC10307832

Assays:
Assay in all cases: relative viability (nuclei count vs DMSO), 5 days (fraction); higher = more cells survive
[1] = compound: C1COCCN1C2=NC(=NC3=C2OC4=C3C=CC=N4)C5=CC(=CC=C5)NC(=O)C6=CN=C(C=C6)N + COc1cc2c(Oc3ccc(NC(=O)C4(C(=O)Nc5ccc(F)cc5)CC4)cc3F)ccnc2cc1OCCCN1CCOCC1 [Foretinib] (partner 0.25 µM)
Method in brief: (§1)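 Relative viability was taken as the ratio of nuclei in treated wells to nuclei in vehicle wells. Lung cancer cell lines in 1536-well plates received compounds by pin tool one day after seeding, either one drug alone or a fixed anchor-drug dose plus five library-drug doses (not always all listed) in √10 steps. Nuclei were counted on 4× images after 5 days of treatment, and values are medians of duplicate plates.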

SGI-1776 + Navitoclax = compound: CN1CCC(CNc2ccc3ncc(-c4cccc(OC(F)(F)F)c4)n3n2)CC1 [SGI-1776] + CC1(C)CCC(c2ccc(Cl)cc2)=C(CN2CCN(c3ccc(C(=O)NS(=O)(=O)c4ccc(N[C@H](CCN5CCOCC5)CSc5ccccc5)c(S(=O)(=O)C(F)(F)F)c4)cc3)CC2)C1 [Navitoclax] (partner 0.5 µM)
Method in brief: as §1

SGI-1776 + Foretinib = compound: CN1CCC(CNc2ccc3ncc(-c4cccc(OC(F)(F)F)c4)n3n2)CC1 [SGI-1776] + COc1cc2c(Oc3ccc(NC(=O)C4(C(=O)Nc5ccc(F)cc5)CC4)cc3F)ccnc2cc1OCCCN1CCOCC1 [Foretinib] (partner 0.25 µM)
Method in brief: as §1

Entinostat + Lapatinib = compound: Nc1ccccc1NC(=O)c1ccc(CNC(=O)OCc2cccnc2)cc1 [Entinostat] + CS(=O)(=O)CCNCc1ccc(-c2ccc3ncnc(Nc4ccc(OCc5cccc(F)c5)c(Cl)c4)c3c2)o1 [Lapatinib] (partner 2 µM)
Method in brief: as §1

Cell Line: UMC-11
- relative viability ([1]; first compound 0.02 µM): 1.05
- relative viability ([1]; first compound 0.06325 µM): 1.08
- relative viability ([1]; first compound 0.2 µM): 1.21
- relative viability ([1]; first compound 0.6325 µM): 1.19
- relative viability ([1]; first compound 2 µM): 0.871
- relative viability (SGI-1776 + Navitoclax; first compound 0.08 µM): 0.265
- relative viability (SGI-1776 + Navitoclax; first compound 0.8 µM): 0.32
- relative viability (SGI-1776 + Navitoclax; first compound 2.53 µM): 0.275
- relative viability (SGI-1776 + Navitoclax; first compound 8 µM): 0.264
- relative viability (SGI-1776 + Foretinib; first compound 0.08 µM): 1.02
- relative viability (SGI-1776 + Foretinib; first compound 0.8 µM): 1.03
- relative viability (SGI-1776 + Foretinib; first compound 2.53 µM): 1.08
- relative viability (SGI-1776 + Foretinib; first compound 8 µM): 0.791
- relative viability (Entinostat + Lapatinib; first compound 0.02 µM): 1.17
- relative viability (Entinostat + Lapatinib; first compound 0.06325 µM): 1.21
- relative viability (Entinostat + Lapatinib; first compound 0.2 µM): 1.28
- relative viability (Entinostat + Lapatinib; first compound 0.6325 µM): 0.222
- relative viability (Entinostat + Lapatinib; first compound 2 µM): 0.173
